Among the data in patent US20100144755A1 (Glaxo Group Limited, priority 2006, published 2010) are inhibition of neutrophilia values, retold here.

Where a name gives a salt, the structure may show the parent alone.

The test concerns influx of neutrophils to the lung in LPS-challenged rats. Briefly: Rat LPS neutrophilia model. In kind it is in vivo. Particulars: LPS aerosol, intratracheal dosing, in at least one of the range of conditions tested, significance p<0.05. On the procedure: Rat LPS Neutrophilia Model
The effect of compounds on the influx of neutrophils to the lung in LPS-challenged rats is evaluated as follows. The test compound is suspended in one of the following solutions: 0.5% tween 80/PBS, 0.5% tween 80/saline, 10% EtOH/saline (with pH adjusted to 2.0, or 8.0 with HCl, or unadjusted), Saline @pH 2.0, 6.5 or 8.0, 0.5% Tragacanth, 1% DMSO/20% Encapsin/Saline, or acidified 5% Tragacanth. The suspension process may be aided by the use of a glass homogenizer. For intratracheal administration, the animals are anesthetized with inhaled isoflurane and placed in a supine position, the trachea is intubated with a steel gavage needle (1.5 inch, 22 gauge, small ball) or a Penn-Century Microsprayer Aerosolizer (model IA-1B) and 200 ul of dosing solution is delivered. The animals are visually monitored during the recovery process, which typically occurs within two minutes. It is noted that the test compounds may be alternatively administered via the microsprayer in a dry powder blend with a suitable excipient, such as lactose.
Rats treated with compound or vehicle (15 min-24 hours pretreatment) are exposed to an LPS aerosol (100 ug/ml) for 15 min. Four hours later the rats are euthanized with pentobarbital (100 mg/kg, i.p.) and the airways are lavaged with 5 washes of 5 ml of phosphate buffered saline. The harvested cells are stained (Diffquick) and counted to determine total and differential cell data. […] Inhibition of neutrophil levels relative to no compound controls is calculated based on the differential counts.
The data is obtained as % inhibition using a particular concentration and pretreat time.
In the case of `Cc1ccc(C(=O)NCCc2ccccc2)cc1-c1nc(NC2CC(C)(C)NC(C)(C)C2)nc2c1ccc(=O)n2-c1c(F)cccc1F` [Example 28, 3-{8-(2,6-difluorophenyl)-7-oxo-2-[(2,2,6,6-tetramethyl-4-piperidinyl)amino]-7,8-dihydropyrido[2,3-d]pyrimidin-4-yl}-4-methyl-N-(2-phenylethyl)benzamide], the inhibition of neutrophilia entry is listed as “statistically nonsignificant inhibition”.

For the compound `CNCCNc1nc(-c2cc(C(=O)NCCc3ccccc3)ccc2C)c2ccc(=O)n(-c3c(F)cccc3F)c2n1` [Example 29, 3-(8-(2,6-difluorophenyl)-2-{[2-(methylamino)ethyl]amino}-7-oxo-7,8-dihydropyrido[2,3-d]pyrimidin-4-yl)-4-methyl-N-(2-phenylethyl)benzamide], the inhibition of neutrophilia entry is “statistically significant inhibition”.

Take `Cc1ccc(C(=O)NC(C)C)cc1-c1nc(N(C)CCCN(C)C)nc2c1ccc(=O)n2-c1c(F)cccc1F` [Example 34, 3-{8-(2,6-difluorophenyl)-2-[[3-(dimethylamino)propyl](methyl)amino]-7-oxo-7,8-dihydropyrido[2,3-d]pyrimidin-4-yl}-4-methyl-N-(1-methylethyl)benzamide]: the inhibition of neutrophilia entry is listed as “statistically significant inhibition”.

For `Cc1ccc(NC(=O)c2cccc3cc[nH]c23)cc1-c1nc(NC(CO)CO)nc2c1ccc(=O)n2-c1c(F)cccc1F` [Example 44, N-[3-(8-(2,6-difluorophenyl)-2-{[2-hydroxy-1-(hydroxymethyl)ethyl]amino}-7-oxo-7,8-dihydropyrido[2,3-d]pyrimidin-4-yl)-4-methylphenyl]-1H-indole-7-carboxamide trifluoroacetate], the inhibition of neutrophilia entry is given as “statistically significant inhibition”.

For `CNCCNc1nc(-c2cc(C(=O)NC(C)C)ccc2C)c2ccc(=O)n(-c3c(F)cccc3F)c2n1` [Example 57, 3-(8-(2,6-difluorophenyl)-2-{[2-(methylamino)ethyl]amino}-7-oxo-7,8-dihydropyrido[2,3-d]pyrimidin-4-yl)-4-methyl-N-(1-methylethyl)benzamide], the inhibition of neutrophilia entry is on record as “statistically significant inhibition”.

Take `CNCCNc1nc(-c2cc(C(=O)NC3CCCC3)ccc2C)c2ccc(=O)n(-c3c(F)cccc3F)c2n1` [Example 58, N-cyclopentyl-3-(8-(2,6-difluorophenyl)-2-{[2-(methylamino)ethyl]amino}-7-oxo-7,8-dihydropyrido[2,3-d]pyrimidin-4-yl)-4-methylbenzamide]: the inhibition of neutrophilia entry is listed as “statistically significant inhibition”.

As for `CNCCNc1nc(-c2cc(C(=O)NCc3ccccc3)ccc2C)c2ccc(=O)n(-c3c(F)cccc3F)c2n1` [Example 59, 3-(8-(2,6-difluorophenyl)-2-{[2-(methylamino)ethyl]amino}-7-oxo-7,8-dihydropyrido[2,3-d]pyrimidin-4-yl)-4-methyl-N-(phenylmethyl)benzamide], the inhibition of neutrophilia entry is “statistically significant inhibition”.

Take `CNCCNc1nc(-c2cc(C(=O)Nc3ccc(F)cc3)ccc2C)c2ccc(=O)n(-c3c(F)cccc3F)c2n1` [Example 60, 3-(8-(2,6-difluorophenyl)-2-{[2-(methylamino)ethyl]amino}-7-oxo-7,8-dihydropyrido[2,3-d]pyrimidin-4-yl)-N-(4-fluorophenyl)-4-methylbenzamide]: the inhibition of neutrophilia entry is “statistically significant inhibition”.

With `CNCCNc1nc(-c2cc(C(=O)Nc3nccs3)ccc2C)c2ccc(=O)n(-c3c(F)cccc3F)c2n1` [Example 61, 3-(8-(2,6-difluorophenyl)-2-{[2-(methylamino)ethyl]amino}-7-oxo-7,8-dihydropyrido[2,3-d]pyrimidin-4-yl)-4-methyl-N-1,3-thiazol-2-ylbenzamide], the inhibition of neutrophilia result is reported as “statistically significant inhibition”.

On to `Cc1ccc(C(=O)Nc2ccc(F)cc2)cc1-c1nc(NC2CC(C)(C)NC(C)(C)C2)nc2c1ccc(=O)n2-c1c(F)cccc1F` [Example 66, 3-{8-(2,6-difluorophenyl)-7-oxo-2-[(2,2,6,6-tetramethyl-4-piperidinyl)amino]-7,8-dihydropyrido[2,3-d]pyrimidin-4-yl}-N-(4-fluorophenyl)-4-methylbenzamide], for which the inhibition of neutrophilia result is “statistically significant inhibition”.

Turning to `Cc1ccc(C(=O)Nc2nccs2)cc1-c1nc(NC2CC(C)(C)NC(C)(C)C2)nc2c1ccc(=O)n2-c1c(F)cccc1F` [Example 67, 3-{8-(2,6-difluorophenyl)-7-oxo-2-[(2,2,6,6-tetramethyl-4-piperidinyl)amino]-7,8-dihydropyrido[2,3-d]pyrimidin-4-yl}-4-methyl-N-1,3-thiazol-2-ylbenzamide], the inhibition of neutrophilia result was “statistically nonsignificant inhibition”.

In the case of `Cc1ccc(C(=O)NC(C)C)cc1-c1nc(N2CCC(N)CC2)nc2c1ccc(=O)n2-c1c(F)cccc1F` [Example 68, 3-[2-(4-amino-1-piperidinyl)-8-(2,6-difluorophenyl)-7-oxo-7,8-dihydropyrido[2,3-d]pyrimidin-4-yl]-4-methyl-N-(1-methylethyl)benzamide], the inhibition of neutrophilia result was “statistically significant inhibition”.

`CCCNC(=O)c1ccc(C)c(-c2nc(N3CCC(N)CC3)nc3c2ccc(=O)n3-c2c(F)cccc2F)c1` [Example 69, 3-[2-(4-amino-1-piperidinyl)-8-(2,6-difluorophenyl)-7-oxo-7,8-dihydropyrido[2,3-d]pyrimidin-4-yl]-4-methyl-N-propylbenzamide]: the inhibition of neutrophilia result is on record as “statistically significant inhibition”.

As for `Cc1ccc(C(=O)NC2CCCC2)cc1-c1nc(N2CCC(N)CC2)nc2c1ccc(=O)n2-c1c(F)cccc1F` [Example 70, 3-[2-(4-amino-1-piperidinyl)-8-(2,6-difluorophenyl)-7-oxo-7,8-dihydropyrido[2,3-d]pyrimidin-4-yl]-N-cyclopentyl-4-methylbenzamide], the inhibition of neutrophilia entry is listed as “statistically nonsignificant inhibition”.

`Cc1ccc(C(=O)NCc2ccccc2)cc1-c1nc(N2CCC(N)CC2)nc2c1ccc(=O)n2-c1c(F)cccc1F` [Example 71, 3-[2-(4-amino-1-piperidinyl)-8-(2,6-difluorophenyl)-7-oxo-7,8-dihydropyrido[2,3-d]pyrimidin-4-yl]-4-methyl-N-(phenylmethyl)benzamide]: the inhibition of neutrophilia entry is “statistically nonsignificant inhibition”.

Turning to `Cc1ccc(C(=O)Nc2ccc(F)cc2)cc1-c1nc(N2CCC(N)CC2)nc2c1ccc(=O)n2-c1c(F)cccc1F` [Example 72, 3-[2-(4-amino-1-piperidinyl)-8-(2,6-difluorophenyl)-7-oxo-7,8-dihydropyrido[2,3-d]pyrimidin-4-yl]-N-(4-fluorophenyl)-4-methylbenzamide], the inhibition of neutrophilia entry is recorded as “statistically significant inhibition”.

In the case of `Cc1ccc(C(=O)Nc2nccs2)cc1-c1nc(N2CCC(N)CC2)nc2c1ccc(=O)n2-c1c(F)cccc1F` [Example 73, 3-[2-(4-amino-1-piperidinyl)-8-(2,6-difluorophenyl)-7-oxo-7,8-dihydropyrido[2,3-d]pyrimidin-4-yl]-4-methyl-N-1,3-thiazol-2-ylbenzamide], the inhibition of neutrophilia result is recorded as “statistically significant inhibition”.

`Cc1ccc(C(=O)NC2CCCC2)cc1-c1nc(NCc2ncc[nH]2)nc2c1ccc(=O)n2-c1c(F)cccc1F` [Example 76, N-cyclopentyl-3-{8-(2,6-difluorophenyl)-2-[(1H-imidazol-2-ylmethyl)amino]-7-oxo-7,8-dihydropyrido[2,3-d]pyrimidin-4-yl}-4-methylbenzamide]: the inhibition of neutrophilia entry is listed as “statistically nonsignificant inhibition”.

As for `Cc1ccc(C(=O)NCc2ccccc2)cc1-c1nc(NCc2ncc[nH]2)nc2c1ccc(=O)n2-c1c(F)cccc1F` [Example 77, 3-{8-(2,6-difluorophenyl)-2-[(1H-imidazol-2-ylmethyl)amino]-7-oxo-7,8-dihydropyrido[2,3-d]pyrimidin-4-yl}-4-methyl-N-(phenylmethyl)benzamide], the inhibition of neutrophilia entry was “statistically significant inhibition”.

For the compound `Cc1ccc(C(=O)Nc2ccc(F)cc2)cc1-c1nc(NCc2ncc[nH]2)nc2c1ccc(=O)n2-c1c(F)cccc1F` [Example 78, 3-{8-(2,6-difluorophenyl)-2-[(1H-imidazol-2-ylmethyl)amino]-7-oxo-7,8-dihydropyrido[2,3-d]pyrimidin-4-yl}-N-(4-fluorophenyl)-4-methylbenzamide], the inhibition of neutrophilia entry was “statistically significant inhibition”.

`Cc1ccc(C(=O)Nc2ccc(F)cc2)cc1-c1nc(NCCN(C)C(=O)OC(C)(C)C)nc2c1ccc(=O)n2-c1c(F)cccc1F` [Example 95, 1,1-dimethylethyl(2-{[8-(2,6-difluorophenyl)-4-(5-{[(4-fluorophenyl)amino]carbonyl}-2-methylphenyl)-7-oxo-7,8-dihydropyrido[2,3-d]pyrimidin-2-yl]amino}ethyl)methylcarbamate]: the inhibition of neutrophilia result is reported as “statistically nonsignificant inhibition”.
